This is an account of results in patent EP4768487A1, “FUSED LACTAM RING COMPOUND AND USE THEREOF” (Chengdu Zenitar Biomedical Technology Co., Ltd., priority 2023, dated 2025).

The structures appear in SMILES notation. Where two headings read alike, the source gives them in different places.

The nature of data set [1]: Cerebrospinal fluid and plasma distribution in vivo. Particulars: rat, male rats, intravenous 5 mg/kg, n = 1.
The target of data set [2] is T1, PARP1 (Homo sapiens, UniProt P09874).
T1 construct: purchased BPS 80501
T1 sequence (P09874 whole entry): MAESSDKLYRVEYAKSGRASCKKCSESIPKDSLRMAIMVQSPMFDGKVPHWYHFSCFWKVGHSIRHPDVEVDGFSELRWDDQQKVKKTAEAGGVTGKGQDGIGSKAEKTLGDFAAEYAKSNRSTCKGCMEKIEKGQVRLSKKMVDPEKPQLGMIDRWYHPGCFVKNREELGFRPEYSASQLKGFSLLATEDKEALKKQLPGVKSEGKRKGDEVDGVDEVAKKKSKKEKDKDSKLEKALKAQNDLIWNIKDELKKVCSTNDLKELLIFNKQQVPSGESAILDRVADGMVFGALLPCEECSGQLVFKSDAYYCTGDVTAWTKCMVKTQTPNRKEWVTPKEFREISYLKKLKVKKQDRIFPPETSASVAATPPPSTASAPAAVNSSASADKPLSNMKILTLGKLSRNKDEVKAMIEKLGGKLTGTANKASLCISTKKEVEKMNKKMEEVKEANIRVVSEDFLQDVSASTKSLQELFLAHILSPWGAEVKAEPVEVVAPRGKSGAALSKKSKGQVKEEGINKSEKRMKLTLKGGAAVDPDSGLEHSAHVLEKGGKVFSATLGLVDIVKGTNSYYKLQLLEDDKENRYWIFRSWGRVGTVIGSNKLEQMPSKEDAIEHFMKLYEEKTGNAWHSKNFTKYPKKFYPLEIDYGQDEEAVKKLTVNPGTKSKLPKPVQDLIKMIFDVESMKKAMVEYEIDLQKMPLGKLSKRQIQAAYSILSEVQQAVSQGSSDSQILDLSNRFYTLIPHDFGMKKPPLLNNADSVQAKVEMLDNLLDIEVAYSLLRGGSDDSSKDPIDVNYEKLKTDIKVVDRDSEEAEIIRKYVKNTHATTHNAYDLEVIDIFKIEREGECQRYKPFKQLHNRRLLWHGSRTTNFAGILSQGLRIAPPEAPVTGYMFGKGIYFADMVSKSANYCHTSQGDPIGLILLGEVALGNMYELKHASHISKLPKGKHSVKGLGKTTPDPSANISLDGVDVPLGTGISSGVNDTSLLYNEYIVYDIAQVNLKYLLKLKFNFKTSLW
Briefly: PARP1 enzyme assay (histone-coated plate, chemiluminescence). The class given is biochemical. Particulars: PARP1 0.02 nM, DNA 0.8 nM, NAD+ 3.5 µM; read-out: PARP-1 IC50.

[3] abbreviates: cerebrospinal fluid, read-out: Cerebrospinal fluid.

Turning to `CNC(=O)c1ccc(N2CCN(CC3Cc4[nH]c(=O)c(C)cc4CO3)CC2)c(Cl)n1` (centres unmarked) [Example 74, 6-Chloro-N-methyl-5-(4-((3-methyl-2-oxo-1,5,7,8-tetrahydro-2H-pyrano[4,3-b]pyridin-7-yl)methyl)piperazin-1-yl)picolinamide], in data set [1] (setting [3]), the concentration at 0.25 h is 60 ng/g and the concentration at 2 h turned out to be 19 ng/g. Moreover, in data set [1] (plasma, read-out: Plasma), the concentration at 0.25 h was determined as 8790 ng/mL and the concentration at 2 h was 5560 ng/mL. Further, in data set [2], the 50% inhibitory concentration (IC50) is no more than 50 nM.

The term IC50 denotes the point on the concentration scale where inhibition reaches its midpoint.
